Key:
Format in all cases: cell-based
[1] = system: Pseudomonas aeruginosa UI-18: Wild-type (PA-7); assay: MIC determination (CLSI), strain PA-7; details: Pseudomonas aeruginosa UI-18, wild-type; unit assumed
Summary of the method: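 Strain tested was P. aeruginosa UI-18, a wild-type isolate labelled PA-7. Minimum inhibitory concentrations followed CLSI dilution methodology for aerobically growing bacteria (M7-A7, M100-S18).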

[2] = system: Escherichia coli EC-1: VOGEL, mouse virulent; assay: MIC determination (CLSI), strain EC-1; details: Escherichia coli EC-1, VOGEL, mouse virulent; unit assumed
Summary of the method: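 The mouse-virulent VOGEL isolate of E. coli, EC-1, served as test organism. Minimum inhibitory concentration was measured by CLSI dilution methodology (M7-A7; M100-S18 standards).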

[3] = system: Acinetobacter baumanii/haemolyticus: Multidrug-resistant clinical isolate (AB-3167); assay: MIC determination (CLSI), strain AB-3167; details: unit assumed
Protocol: The in vitro antibacterial activity of compounds described in the Examples was evaluated by minimum inhibitory concentration (MIC) testing according to Clinical and Laboratory Standards Institute (CLSI, formerly NCCLS) guidelines. See: Clinical and Laboratory Standards Institute. Methods for Dilution Antimicrobial Susceptibility Tests for Bacteria that Grow Aerobically; Approved Standard-Seventh Edition. CLSI document M7-A7 [ISBN 1-56238-587-9]. Clinical and Laboratory Standards Institute, 940 West Valley Road, Suite 1400, Wayne, Pa. 19087-1898 USA, 2006; also Clinical and Laboratory Standards Institute. Performance Standards for Antimicrobial Susceptibility Testing; Eighteenth Informational Supplement. CLSI document M100-S18 [ISBN1-56238-653-0].Clinical and Laboratory Standards Institute.
The following bacterial strains were used in these MIC determinations:
2) Acinetobacter baumanii/haemolyticus: Multidrug-resistant clinical isolate labeled as AB-3167 in Tables 4 and 5;

| SMILES | PA-7 (MIC) [1] [µg/mL] | EC-1 (MIC) [2] [µg/mL] | AB-3167 (MIC) [3] [µg/mL] |
| --- | --- | --- | --- |
| CC(CCn1ccc(OCCc2ccccc2)cc1=O)(C(=O)NO)S(C)(=O)=O (stereo not drawn) [Example 68-U, N-hydroxy-2-methyl-2-(methylsulfonyl)-4-[2-oxo-4-(2-phenylethoxy)pyridin-1(2H)-yl]butanamide] | 64 | 32 | > 64 |
| CC(CCn1ccc(OCCCC2CCCCC2)cc1=O)(C(=O)NO)S(C)(=O)=O (stereo not drawn) [Example 66, 4-[4-(3-Cyclohexylpropoxy)-2-oxopyridin-1(2H)-yl]-N-hydroxy-2-methyl-2-(methylsulfonyl)butanamide] | 8 | 1 | 2 |
| COc1ccc(-c2ccn(CC[C@](C)(C(=O)NO)S(C)(=O)=O)c(=O)c2)c(F)c1F [Example 44, (2R)-4-[4-(2,3-difluoro-4-methoxyphenyl)-2-oxopyridin-1(2H)-yl]-N-hydroxy-2-methyl-2-(methylsulfonyl)butanamide] | 1 | 0.015 | > 64 |
| C[C@@](CCn1ccc(-c2cccc(F)c2)cc1=O)(C(=O)NO)S(C)(=O)=O [Example 42, (2R)-4-[4-(3-fluorophenyl)-2-oxopyridin-1(2H)-yl]-N-hydroxy-2-methyl-2-(methylsulfonyl)butanamide] | 1 | 2 | > 64 |
| Cc1cnc(-c2ccc(-c3ccn(CC[C@](C)(C(=O)NO)S(C)(=O)=O)c(=O)c3)cc2)o1 [Example 38, (2R)-N-hydroxy-2-methyl-4-{4-[4-(5-methyl-1,3-oxazol-2-yl)phenyl]-2-oxopyridin-1(2H)-yl}-2-(methylsulfonyl)butanamide] | 0.5 | 0.06 | > 64 |
| CC1(O)CCC(Oc2ccc(-c3ccn(CC[C@](C)(C(=O)NO)S(C)(=O)=O)c(=O)c3)cc2F)CC1 (stereo partly drawn) [Example 10-I, (2R)-4-[4-{3-fluoro-4-[(4-hydroxy-4-methylcyclohexyl)oxy]phenyl}-2-oxopyridin-1(2H)-yl]-N-hydroxy-2-methyl-2-(methylsulfonyl)butanamide] | 2 | 0.5 | > 64 |
| Cc1nccc(-c2ccc(-c3ccn(CC[C@](C)(C(=O)NO)S(C)(=O)=O)c(=O)c3)cc2)n1 [Example 23, (2R)-N-hydroxy-2-methyl-4-{4-[4-(2-methylpyrimidin-4-yl)phenyl]-2-oxopyridin-1(2H)-yl}-2-(methylsulfonyl)butanamide] | 2 | 2 | > 64 |
| CC(CCn1ccc(OCCC2CCCC2)cc1=O)(C(=O)NO)S(C)(=O)=O (stereo not drawn) [Example 68-S, 4-[4-(2-cyclopentylethoxy)-2-oxopyridin-1(2H)-yl]-N-hydroxy-2-methyl-2-(methylsulfonyl)butanamide] | 32 | 16 | 64 |
| C[C@@](CCn1ccc(-c2cccc(Cl)c2Cl)cc1=O)(C(=O)NO)S(C)(=O)=O [Example 46, (2R)-4-[4-(2,3-dichlorophenyl)-2-oxopyridin-1(2H)-yl]-N-hydroxy-2-methyl-2-(methylsulfonyl)butanamide] | 0.5 | 0.25 | > 64 |
| C[C@@](CCn1ccc(-c2ccc(N3CCC(CO)CC3)cc2)cc1=O)(C(=O)NO)S(C)(=O)=O [Example 61, (2R)-N-hydroxy-4-[4-{4-[4-(hydroxymethyl)piperidin-1-yl]phenyl}-2-oxopyridin-1(2H)-yl]-2-methyl-2-(methylsulfonyl)butanamide] | 2 | 64 | > 64 |
| CO/N=C(\C)c1ccc(-c2ccn(CCC(C)(C(=O)NO)S(C)(=O)=O)c(=O)c2)cc1 (stereo not drawn) [Example 62, N-Hydroxy-4-[4-{4-[(1E)-N-methoxyethanimidoyl]phenyl}-2-oxopyridin-1(2H)-yl]-2-methyl-2-(methylsulfonyl)butanamide] | 4 | 0.5 | > 64 |
| COCCSc1ccc(-c2ccn(CC[C@](C)(C(=O)NO)S(C)(=O)=O)c(=O)c2)cc1 [Example 48, (2R)-N-hydroxy-4-[4-{4-[(2-methoxyethyl)thio]phenyl}-2-oxopyridin-1(2H)-yl]-2-methyl-2-(methylsulfonyl)butanamide] | 1 | 0.25 | > 64 |
| CC(CCn1ccc(-c2ccc(OC3CC(CO)C3)cc2)cc1=O)(C(=O)NO)S(C)(=O)=O (stereo not drawn) [Example 10-F, N-hydroxy-4-[4-(4-{[3-(hydroxymethyl)cyclobutyl]oxy}phenyl)-2-oxopyridin-1(2H)-yl]-2-methyl-2-(methylsulfonyl)butanamide] | 2 | 0.5 | 64 |
| C[C@@](CCn1ccc(-c2ccc(Cl)c(F)c2F)cc1=O)(C(=O)NO)S(C)(=O)=O [Example 49, (2R)-4-[4-(4-chloro-2,3-difluorophenyl)-2-oxopyridin-1(2H)-yl]-N-hydroxy-2-methyl-2-(methylsulfonyl)butanamide] | 0.25 | 0.125 | > 64 |
| C[C@@](CCn1ccc(-c2cccc(Cl)c2F)cc1=O)(C(=O)NO)S(C)(=O)=O [Example 45, (2R)-4-[4-(3-chloro-2-fluorophenyl)-2-oxopyridin-1(2H)-yl]-N-hydroxy-2-methyl-2-(methylsulfonyl)butanamide] | 0.5 | 0.25 | > 64 |
| C[C@@](CCn1ccc(-c2ccc(OCCC3CC(O)C3)cc2)cc1=O)(C(=O)NO)S(C)(=O)=O (stereo partly drawn) [Example 32, (2R)-N-hydroxy-4-[4-{4-[2-(3-hydroxycyclobutyl)ethoxy]phenyl}-2-oxopyridin-1(2H)-yl]-2-methyl-2-(methylsulfonyl)butanamide] | 1 | 0.25 | > 64 |
| Cc1ncc(-c2ccc(-c3ccn(CC[C@](C)(C(=O)NO)S(C)(=O)=O)c(=O)c3)cc2)cn1 [Example 27, (2R)-N-hydroxy-2-methyl-4-{4-[4-(2-methylpyrimidin-5-yl)phenyl]-2-oxopyridin-1(2H)-yl}-2-(methylsulfonyl)butanamide] | 4 | 16 | > 64 |
| C[C@@](CCn1ccc(-c2ccc(-n3nccn3)cc2)cc1=O)(C(=O)NO)S(C)(=O)=O [Example 40, (2R)-N-hydroxy-2-methyl-2-(methylsulfonyl)-4-{2-oxo-4-[4-(2H-1,2,3-triazol-2-yl)phenyl]pyridin-1(2H)-yl}butanamide] | 0.25 | 0.03 | > 64 |
| CC(CCn1ccc(-c2ccc3cccnc3c2)cc1=O)(C(=O)NO)S(C)(=O)=O (stereo not drawn) [Example 36, N-hydroxy-2-methyl-2-(methylsulfonyl)-4-(2-oxo-4-quinolin-7-ylpyridin-1(2H)-yl)butanamide] | 8 | 4 | > 64 |
| CC(C)(O)CCCOc1ccc(-c2ccn(CCC(C)(C(=O)NO)S(C)(=O)=O)c(=O)c2)cc1 (stereo not drawn) [Example 10-E, N-hydroxy-4-[4-{4-[(4-hydroxy-4-methylpentyl)oxy]phenyl}-2-oxopyridin-1(2H)-yl]-2-methyl-2-(methylsulfonyl)butanamide] | 2 | 0.5 | > 64 |

— US8846933B2, “N-link hydroxamic acid derivatives useful as antibacterial agents” (Pfizer Inc., priority 2009, dated 2014)
